Source: patent US5462744A, “Transdermal system for the administration of pharmacological compounds under pH-controlled conditions” (Boehringer Ingelheim KG, priority 1990, dated 1995)
“And” between values parts separate entries of the source, which are not always exact repeats. Equal values may be shown once. “Also recorded” adds a separate entry of the source.

Assays:
[1] = pH of the skin surface underneath the system after 5 days' wearing, surface pH electrode (FIG. 6); format: in vivo, human; details: in the polymethacrylate matrix
Excerpt: The systems tested differ in their concentration of citric acid in the polymethacrylate matrix. It is clear that only a citric acid concentration of more than 1% can bring about any significant change in the surface pH of the skin. The words "values 1, 2 and 3" in FIG. 7 refer to test subjects.

[2] = transdermal administration, prior practice; cited from earlier work
[3] = Flux rate of clenbuterol through human skin depending on pH (FIG. 9); format: in vitro ADME; details: pH range 6.0 to 8.5 versus higher and lower pH
Excerpt: The flux rate of an active substance through the skin is defined as the quantity of active substance per unit of area of the skin and per unit of time and is normally given in [μg/cm^2.h].
Curve B illustrates the water solubility of the substance depending on the pH value [mg/ml]. […] (The right-hand ordinate in FIG. 9 is shown logarithmically). [μg/cm^2. h]

[4] = Permeability of pH-modified clenbuterol CPA through human skin (Franz cell release apparatus); format: in vitro ADME
Procedure: Permeability of pH-modified clenbuterol CPA through human skin:
Composition of the CPA's:
Polymethacrylate 90% 90%
A Franz cell was used as the release apparatus. This is a conventional method of testing the release of drugs from pharmaceutical formulations. Samples were taken after 24 hours and 48 hours and the clenbuterol content was determined.

For `O=C(O)CC(O)(CC(=O)O)C(=O)O` [Citric acid, citric acid], which “citric acid concentration that brings about significant change in the surface pH of the skin” value [1] is on record?
Its value is “more than 1%”.

Which “constancy of blood level values” [2] does the source give for `CC(C)(C)NCC(O)c1cc(Cl)c(N)c(Cl)c1` (stereo not drawn) [Clenbuterol] here?
The value was “has not hitherto resulted in constant blood level values”.

And the “flux rate depending on pH” value [3]?
The value was “reaches a maximum in the pH range specified above, but decreases sharply at higher and lower pH levels; also recorded: reduced drastically outside the pH range specified”.

And the “diffusion rate, alkaline versus acid pH” value ([4]; pH 10.0 vs pH 3.5)?
Its value is “a higher diffusion rate is found at an alkaline pH than at an acid pH”.

What about the “Clenbuterol Diffusion after 24 hours” value ([4]; pH-value 10.0 (5% Na2CO3), 24 hours, 5% clenbuterol in polymethacrylate) of the same compound?
The value was 7.8 μg/cm^2 and 11.44 μg/cm^2 and 9.84 μg/cm^2.

And the “Clenbuterol Diffusion after 48 hours” value ([4]; pH-value 10.0 (5% Na2CO3), 48 hours, 5% clenbuterol in polymethacrylate)?
Its value is 21.7 μg/cm^2 and 27.3 μg/cm^2 and 24.2 μg/cm^2.
